# Data published in article PMC11091967, “Silicon-Rhodamine Functionalized Evocalcet Probes Potently and Selectively Label Calcium Sensing Receptors In Vitro, In Vivo, and Ex Vivo” (ACS Pharmacology & Translational Science, 2024).
# Values joined by “and” are separate entries in the source; they are usually repeats but may differ in a detail not shown here. Equal entries are not always repeated. Where two headings read alike, the source gives them in different places.
# Key:
# human CaSR [1] = target: T1, human CaSR (Homo sapiens, UniProt P41180); assay: FLIPR-based functional CaSR calcium assay in HCAR cells; assay type: cell-based; conditions: for fold improvement in potency toward CaSR compared to evocalcet / fold increase in potency toward CaSR compared to the evocalcet-linker conjugate: FLIPR assay
# T1 construct: host or cells: CCL39 hamster lung fibroblasts stably transfected (HCAR), Geneticin selection
# T1 sequence (P41180 20-1078): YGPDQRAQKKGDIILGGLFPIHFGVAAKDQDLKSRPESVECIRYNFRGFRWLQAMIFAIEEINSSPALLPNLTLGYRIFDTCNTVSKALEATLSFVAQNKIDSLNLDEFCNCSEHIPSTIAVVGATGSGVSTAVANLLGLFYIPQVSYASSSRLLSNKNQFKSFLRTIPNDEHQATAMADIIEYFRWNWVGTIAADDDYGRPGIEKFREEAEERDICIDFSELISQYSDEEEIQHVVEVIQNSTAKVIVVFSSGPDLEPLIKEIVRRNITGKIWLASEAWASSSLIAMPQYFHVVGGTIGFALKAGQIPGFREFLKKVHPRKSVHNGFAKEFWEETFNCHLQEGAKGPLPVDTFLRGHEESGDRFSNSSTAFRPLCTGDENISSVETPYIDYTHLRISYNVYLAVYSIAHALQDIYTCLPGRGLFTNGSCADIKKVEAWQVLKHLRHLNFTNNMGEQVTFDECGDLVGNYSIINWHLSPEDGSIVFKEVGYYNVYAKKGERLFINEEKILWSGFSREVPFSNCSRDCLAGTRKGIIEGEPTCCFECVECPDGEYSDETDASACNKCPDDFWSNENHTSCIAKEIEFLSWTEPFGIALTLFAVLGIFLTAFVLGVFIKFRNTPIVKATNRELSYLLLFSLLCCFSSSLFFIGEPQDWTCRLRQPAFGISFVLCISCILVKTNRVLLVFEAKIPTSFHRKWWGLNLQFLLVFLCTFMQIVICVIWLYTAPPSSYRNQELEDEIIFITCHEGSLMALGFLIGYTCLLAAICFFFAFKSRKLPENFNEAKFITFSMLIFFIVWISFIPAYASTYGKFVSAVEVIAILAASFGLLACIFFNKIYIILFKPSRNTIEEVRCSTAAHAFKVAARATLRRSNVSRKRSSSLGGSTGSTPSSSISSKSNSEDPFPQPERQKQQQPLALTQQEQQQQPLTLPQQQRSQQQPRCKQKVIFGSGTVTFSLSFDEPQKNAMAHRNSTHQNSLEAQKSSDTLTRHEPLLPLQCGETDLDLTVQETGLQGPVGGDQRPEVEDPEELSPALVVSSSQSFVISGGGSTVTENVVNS
# Procedure: (§1) Hamster lung fibroblasts (CCL39, CaSR−) expressing the recombinant human CaSR (HCAR, CaSR+) and nontransected controls were kindly provided by Novartis AG and were kept in standard culturing conditions (37 °C, 5% CO2) in 1/2 DMEM (Roth, 9005.1)—1/2 F-12 (Sigma, N4888–500 mL) media containing 10% FBS. Media for the HCAR cells contained 500 μg/mL Geneticin as a selection antibiotic (Thermo Fisher, 10131035). Upon reaching 90–95% confluence, cells were detached and seeded into 96-well plates (PerkinElmer, 6005182) at a concentration of 35,000 cells per well and were incubated for 24 h before the experiment. For the functional CaSR calcium assay, cells were first washed twice with HBSS medium (Sigma, H6648), and were incubated in HBSS containing 5 μM Fluo-8 AM and 0.1 mM CaCl2 for 30 min at 37 °C. Calcium transients were measured upon addition of 0.5 mM CaCl2 with the FLIPR Tetra high-throughput cellular screening systems using the 470–495 nm LED excitation and 515–575 nm bandpass emission filters. Probe solutions contained 0.5% DMSO and were added to the cells 10 min prior to the measurement. dF/F0 values were calculated as a change in the peak fluorescence value of the transient for the first 200 data points normalized to the background fluorescence of the well. […] Both cells were washed with HBSS medium twice and then incubated for 10 min at 37 °C in HBSS medium containing 0.1% BSA in the presence or absence of 10 μM evocalcet. Upon the removal of media, cells were incubated in various concentrations of EvoSiR4 and EvoSiR6 in HBSS containing 0.1% BSA for 30 min at 37 °C and were subsequently washed 3 times with 0.1% BSA and resuspended in DMSO before the fluorometric measurement. The fluorescence was measured using a Tecan GENios pro microplate reader with the following parameters: λex = 612 nm, λem = 670 nm, gain = 50 AU. Data for the EvoSiR probes and the evocalcet competition is reported as CaSR-specific fluorescence, which was calculated by dividing the absolute fluorescence of the HCAR cells with the absolute fluorescence of the CCL39 cells for each concentration.
# human CaSR [2] = target: T1, human CaSR; assay: CaSR binding affinity estimated from differential fluorescence between HCAR (CaSR+) and CCL39 (CaSR-) cells
# Procedure: as §1
# [3] = test system: hair cells of the neuromasts within the lateral line organ; assay: In vivo labeling of neuromasts in zebrafish larvae; parameters: species or system zebrafish (Danio rerio); conditions: 4–6 dpf larvae; for fold increase in fluorescence intensity within the neuromasts: co-labeling with DiAsp; for normalized fluorescence of the neuromasts to the background fluorescence, mean and standard deviation: neuromasts identified with DiAsp
# Procedure: For the neuromast labeling experiments, wild-type 4–6 days post fertilization (dpf) zebrafish larvae were incubated in 200 μL of E3 medium containing different doses of the SiR probes (500–5000 nM), 2.5 μM 4-(4-diethylaminostyryl)-1-methyl-pyridinium-iodid (DiAsp, Sigma, D3418), which specifically labels hair cells in the lateral line in 0.5% DMSO for 30 min (35). Next, washing and anesthesia were achieved by placing the larvae in a 35 mm imaging dish (MolBiTec, Imaging dish 1.5) which contained 500 μL of E3 medium with 168 mg/L MS-222 (Tricaine Mehanesulfonate, Sigma) for 10 min. After removing the solution, fish were side-embedded in the imaging dish using 500 μL of 0.75% low-melting temperature agarose (Sigma, A4018). Wide-field imaging was done using the Zeiss Axio Observer fluorescence microscope (LD A-Plan 10× objective, NA = 0.25), and confocal imaging was done using a Zeiss LSM 800 confocal fluorescence microscope (LD LCI Plan-Apochromat 25× objective, NA = 0.8).
# [4] = EC50, positive allosteric modulation of CaSR activity, HCAR cells, response to addition of 0.5 mM CaCl2, no BSA
"EC50 (human CaSR [1]; HCAR cells, response to addition of 0.5 mM CaCl2, no BSA, read-out: EC50, positive allosteric modulation of CaSR activity) [nM]",effect of preincubation on CaSR-specific increase in relative fluorescence of EvoSiR probes (human CaSR [2]; 10 μM evocalcet preincubation),Compound,EC50 (human CaSR [1]; [4]),"EC50 (human CaSR [1]; EC50 in 0.1% BSA, 0.1% BSA) [nM]","EC50 (human CaSR [1]; EC50 in 0.5% BSA, 0.5% BSA) [nM]","EC50 (human CaSR [1]; EC50 in 1% BSA, 1% BSA) [nM]",fold improvement in potency toward CaSR compared to evocalcet (human CaSR [1]) [fold],fold increase in potency toward CaSR compared to the evocalcet-linker conjugate (human CaSR [1]) [fold],"fold reduction in the EC50 value upon washing with HBSS (human CaSR [1]; incubated in 1% BSA, washed with HBSS upon 10 min incubation) [fold]",Kd (human CaSR [2]) [nM],fold increase in fluorescence intensity within the neuromasts [3] [fold],"normalized fluorescence of the neuromasts to the background fluorescence, mean and standard deviation [3]"
–,–,Cc1cc(C(=O)NCCCCNC(=O)Cc2ccc(N3CC[C@H](N[C@H](C)c4cccc5ccccc45)C3)cc2)ccc1C1=C2C=CC(=[N+](C)C)C=C2[Si](C)(C)c2cc(N(C)C)ccc21 [EvoSiR4],< 45 nM and ~40 nM and 38 nM,64 ± 12,102 ± 34,106 ± 42,6,3,10,53.6 ± 18.4,5.7,5.71 ± 4.4
–,–,Cc1cc(C(=O)NCCCCCCNC(=O)Cc2ccc(N3CC[C@H](N[C@H](C)c4cccc5ccccc45)C3)cc2)ccc1C1=C2C=CC(=[N+](C)C)C=C2[Si](C)(C)c2cc(N(C)C)ccc21 [EvoSiR6],< 45 nM and ~40 nM and 42 nM,–,–,–,6,3,–,71 ± 9.56,5.6,5.6 ± 3.1
243 ± 15,completely abolished,C[C@@H](N[C@H]1CCN(c2ccc(CC(=O)O)cc2)C1)c1cccc2ccccc12 [evocalcet],–,–,–,–,–,–,–,–,–,–
